# Test results published in ChEMBL document CHEMBL1140607, “Pharmacophore mapping of diverse classes of farnesyltransferase inhibitors” (Bioorg Med Chem Lett, 2007).
# Experiment: Inhibition of FTase
row,IC50,Structure (SMILES)
1,0.88 nM,Cn1cncc1C(OCc1ccc(C#N)cc1NS(=O)(=O)c1cccs1)c1ccc(C#N)cc1 (configuration not stated)
2,0.32 nM,N#Cc1ccc(OCc2cn(Cc3ccc(C#N)c(-c4ccc5ccccc5c4)c3)cn2)cc1
3,29 nM,Cc1ccccc1-c1cc(C(OCc2cccc(C(F)(F)F)c2)c2cncn2C)ccc1C#N (configuration not stated)
4,0.19 nM,COCc1cccc(-c2cc(C#N)ccc2COC(c2ccc(C#N)cc2)c2cncn2C)c1 (configuration not stated)
5,0.15 nM,N#Cc1ccc(Cn2cncc2Cn2ccc3cc(-c4cccc5ccccc45)c(C#N)cc32)cc1
6,0.96 nM,N#Cc1ccc(COCc2cncn2Cc2ccc(C#N)cc2-c2cccc3ccccc23)cc1
7,160 nM,Cn1cncc1C(OCc1ccc(C#N)cc1)c1ccc(C#N)c(-c2cc3ccccc3s2)c1 (configuration not stated)
8,1.1 nM,Cn1cncc1C(OCc1ccc(C#N)cc1-c1ccc2c(c1)OC(F)(F)O2)c1ccc(C#N)cc1 (configuration not stated)
9,0.73 nM,CCOc1cccc(-c2cc(C#N)ccc2C#CC(O)(c2ccc(C#N)cc2)c2cncn2C)c1 (configuration not stated)
10,40 nM,COc1cccc(-c2cc(N)ccc2COC(c2ccc(C#N)cc2)c2cncn2C)c1 (configuration not stated)

# Continued, compound first:
row,Structure (SMILES),IC50
1,Cn1cncc1C(O)(c1ccc(Cl)cc1)c1ccc2c(c1)n(Cc1cccc(Cl)c1)c(=O)n2C (configuration not stated),150 nM
2,Cn1cncc1C(O)(c1ccc(C#N)cc1)c1ccc2c(c1)n(-c1cccc(Cl)c1)c(=O)n2C (configuration not stated),1.4 nM
3,Cc1ccc(CNC(=O)C2CN(C3c4ccc(Cl)cc4CCc4cc(Br)cnc43)CCN2C(=O)NC2CCCCC2)cn1 (configuration not stated),61 nM
4,CCCCC(=O)N1CCN(C2c3ccc(Cl)cc3CCc3cc(Br)ccc32)CC1C(=O)NCc1ccc[n+]([O-])c1 (configuration not stated),1800 nM
5,CCOc1cccc(-c2cc(C#N)ccc2CNCc2cncn2Cc2ccc(C#N)cc2)c1,0.014 nM
6,O=C(Nc1nncs1)C1CN(C2c3ccc(Cl)cc3CCc3cc(Br)cnc32)CCN1C(=O)NC1CCCCC1 (configuration not stated),490 nM
7,CCOc1cccc(-c2cc(C#N)ccc2COCc2cncn2Cc2ccc(C#N)cc2)c1,0.27 nM
8,C[n+]1cccc(NC(=O)C2CN(C3c4ccc(Cl)cc4CCc4cc(Br)cnc43)CCN2C(=O)NC2CC2)c1 (configuration not stated),51 nM
9,N#Cc1ccc(Cn2cncc2COCc2ccc(C#N)cc2-c2cccc(OC(F)(F)F)c2)cc1,0.49 nM
10,CS(=O)(=O)Cn1cncc1COCc1ccc(C#N)cc1-c1cccc(Cl)c1,96 nM
11,CCOc1cccc(-n2c(=O)n(C)c3ccc(C(O)(c4ccc(C#N)cc4)c4cncn4C)cc32)c1 (configuration not stated),0.5 nM
12,Cn1c(=O)cc(-c2cccc(Cl)c2)c2cc(Cn3cncc3Cn3ccc(C(=O)N4CCOCC4)c3)ccc21,1000 nM
